Where two headings read alike, the source gives them in different places.
Columns and labels:
[1] = Plasma pharmacokinetic parameters following intravenous (IV) or oral (PO) administration in rats; type: in vivo, Sprague-Dawley rats; details: rat; for Vd: read-out: Vss obs; for Cmax: read-out: Cmax; for Tmax: read-out: Tmax; for Total clearance as % liver blood flow: IV; for F: PO 2.5 mg/kg vs IV 0.5 mg/kg
Experimental: (§1) Adult male Sprague-Dawley rats (230-250 g) (Charles River Labs, Hollister, CA) were utilized for the study. There were 2 rats/group. All animals were food fasted overnight with water provided ad libitum at all times. Compounds 1, 4, 14 and 19 were synthesized as described in Examples 2, 17, 7, and 12, respectively, and formulated in injectable water.
(§2) The morning of each dosing, individual doses were calculated based on current body weights on the day of dosing. The jugular vein cannula (JVC) and the carotid artery cannula (CAC) were externalized, flushed with HEP/saline (10 IU/mL HEP/mL saline), plugged, and labeled to identify the jugular vein and the carotid artery. The IV group animals were dosed at 0.5 mg/kg of Compound 1, 4, 14 or 19, respectively, intravenously via the jugular vein, while the PO dose was administered 2.5 mg/kg of Compound 1, 4, 14 or 19, respectively, orally via gavage. For the IV group, immediately following the dose of test article, the dead volume of the catheter was flushed with 0.9% saline to ensure the animals received the full dose.
Approximately 0.2 mL of blood was collected per time point from JVC. Blood samples were collected at 2 (IV group only), 5, 15, 30, 60, 120, 240, 360, 420 (Compound 19 only), 480, 720 (Compound 19 only), and 1440 minutes via the CAC and transferred immediately into K2EDTA coated tubes pre-loaded 2 μl with quenching cocktail and placed on wet ice. The samples were centrifuged within 30 min after collection at 10,000 RPM for 5 minutes and the resulting plasma was separated. Plasma was transferred into microfuge tubes and placed on dry ice immediately. The plasma samples were stored at approximately −70° C. until bioanalysis.
Plasma samples were extracted by protein precipitation with acetonitrile containing 0.1% formic acid and doxepin for Compound 1 (available from Sigma-Aldrich) or SCH58261 for Compounds 4, 14 and 19 (available from Sigma-Aldrich) as an internal standard. Following vortex and centrifugation, supernatant was diluted 3-fold with water containing 0.1% formic acid and analyzed by LC-MS/MS.
Pharmacokinetic parameters (PK) were determined by non-compartmental analysis (NCA) using Phoenix 64 WinNonlin (version 8) and Dotmatics (version 5.0). Nominal doses and time points were used for the analysis.
The following PK parameters were estimated using plasma concentration-time profile of each animal with the results presented in Table 3: • AUCinf Area under the concentration-time from zero to time infinity • AUClast Area under the concentration-time from zero to time of last concentration value • F Bioavailability • CL Total body clearance • Cmax Maximum (peak) concentration • MRTlast Mean residence time to last observable concentration • Tmax Time to reach maximum or peak concentration following administration • Vss Volume of distribution at steady state
as §1, with “Compound 1 was” for “Compounds 1, 4, 14 and 19 were”, “Example 2” for “Examples 2, 17, 7, and 12, respectively,”
as §2, with “1” for “1, 4, 14 or 19, respectively,”
Approximately 0.2 mL of blood was collected per time point from JVC. […]

A1 receptor = molecular target: T1, A1 receptor (Homo sapiens, UniProt P30542); assay: Radioligand receptor binding assay, A1 receptor; details: cell membranes overexpressing A1 receptor, read-out: Potency Ki A1
T1 construct: purchased
T1 sequence (P30542 1-326): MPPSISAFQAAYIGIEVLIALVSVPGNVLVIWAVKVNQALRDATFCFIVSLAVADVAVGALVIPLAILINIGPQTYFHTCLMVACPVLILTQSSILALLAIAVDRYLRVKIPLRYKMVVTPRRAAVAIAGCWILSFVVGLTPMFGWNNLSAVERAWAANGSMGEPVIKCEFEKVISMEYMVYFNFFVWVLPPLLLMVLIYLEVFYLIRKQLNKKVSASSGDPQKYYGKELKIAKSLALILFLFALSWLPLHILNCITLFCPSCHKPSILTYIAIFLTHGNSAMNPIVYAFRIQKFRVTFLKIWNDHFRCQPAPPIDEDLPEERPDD
Experimental: (§3) Using conventional receptor binding assay techniques, Compounds 1-24 were assayed to determine binding activity at the A2A, A1, and A3 receptors with the results shown in Table 7.
(§4) Receptor binding affinity of Compounds 1-24 was measured using radioligand binding assays using commercially obtained cell membranes prepared from cell lines overexpressing the A2A, A1, or A3 receptors. Briefly, cell membrane preparations from cells expressing the specific receptor were mixed with the appropriate [^3H]-labeled tracer for the specific receptor and the test compound or a known inhibitor of receptor-ligand binding. Following 60 min incubation at room temperature to allow receptor-ligand complex formation, the complexes were collected by filtration, washed with 50 mM Tris HCl (pH 7.5) to remove radioligand that was not receptor-bound, and the remaining radioactivity determined by liquid scintillation counting. Specific radioligand binding was calculated for each test compound concentration and IC50 values were determined by non-linear, regression analysis. Inhibition constants (Ki) were calculated using the equation of Cheng and Prusoff using the observed IC50 of the tested compound, the concentration of radioligand employed in the assay and the experimentally determined values for the Kd of the ligand.

A2A receptor = molecular target: T2, A2A receptor (Homo sapiens, UniProt P29274); assay: Radioligand receptor binding assay, A2A receptor; details: cell membranes overexpressing A2A receptor, read-out: Potency Ki A2A
T2 construct: purchased
T2 sequence (P29274 whole entry): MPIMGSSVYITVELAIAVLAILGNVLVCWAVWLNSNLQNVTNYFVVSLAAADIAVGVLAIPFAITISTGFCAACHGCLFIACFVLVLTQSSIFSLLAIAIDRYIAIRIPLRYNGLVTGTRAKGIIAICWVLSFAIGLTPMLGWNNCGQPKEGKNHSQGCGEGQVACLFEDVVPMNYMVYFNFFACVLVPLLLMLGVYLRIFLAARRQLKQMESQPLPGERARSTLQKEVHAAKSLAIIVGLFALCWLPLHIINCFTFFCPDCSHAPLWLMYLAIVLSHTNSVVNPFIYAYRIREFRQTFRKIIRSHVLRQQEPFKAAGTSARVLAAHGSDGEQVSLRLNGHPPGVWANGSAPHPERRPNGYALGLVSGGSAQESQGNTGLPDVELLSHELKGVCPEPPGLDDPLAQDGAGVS
Experimental: as §3, §4

[2] = Brain-to-plasma ratio (B/P) after administration; type: in vivo, Sprague-Dawley rats; details: Sprague-Dawley, rat, brain-to-plasma ratio at 1 h
Source text: A similar unexpected result was obtained when the phenyl ring present on Compound 1 was replaced with a halogen substituted pyridine. The halogen was previously introduced on the phenyl ring with the aim of blocking a possible metabolic soft-spot, with similar results observed as for Compound 1 in terms of exposure, clearance and bioavailability (Compound 10 and Compound 15). The substituted pyridine ring was designed to modulate the lipophilicity and polar surface area, as well as to address metabolic soft-spot concerns. Clearance and bioavailability parameters remain similar between substituted phenyl and pyridine (Compound 4 and Compound 14) analogs, which span a range in cLogP of 2.7-3.2. It was therefore surprising the significant improvement in exposure and clearance observed for the more lipophilic Compound 19. […] A compound is commonly deemed to be a brain penetrant if the brain-to-blood/plasma concentration ratio (B/P) is greater than 0.04 using methods as known in the art (Schaffer, Annual Reports in Medicinal Chemistry, 45:55-70, 2010).
Plasma pharmacokinetic parameters were determined following oral (PO) administration of further compounds essentially as described in Example 28 with the results shown in Table 6.

[3] = male, Sprague-Dawley, plasma, 2.5 mg/kg, Table 6, oral (PO) administration essentially as described in Example 28
[4] = male, Sprague-Dawley, plasma, intravenous, 0.5 mg/kg, Table 6, essentially as described in Example 28
[5] = male, Sprague-Dawley, plasma, po, 2.5 mg/kg, Table 6, oral (PO) administration essentially as described in Example 28
[6] = male, Sprague-Dawley, plasma, intravenous, 0.5 mg/kg, Table 2 summary of Example 27, values marked 1 are the average of experiments
[7] = male, Sprague-Dawley, plasma, iv, 0.5 mg/kg, IV 0.5 mg/kg, injectable water
[8] = male, Sprague-Dawley, plasma, oral, 2.5 mg/kg, Table 2 summary of Example 27, values marked 1 are the average of experiments
[9] = male, Sprague-Dawley, plasma, po, 2.5 mg/kg, PO 2.5 mg/kg via gavage, injectable water

SMILES	AUC [1, 3] [ng·h/mL]	clearance [1, 4] [mL/min/kg]	bioavailability [1, 5] [%]	Ki (A1 receptor) [nM]	Ki (A2A receptor) [nM]	Kp at 1 h ([2]; oral, 2.5 mg/kg, Table 6)	clearance [1, 6] [mL/min/kg]	AUC(0-inf) [1, 7] [ng·h/mL]	AUC(0-t) [1, 7] [ng·h/mL]	MRT last [1, 7] [h]	clearance [1, 7] [mL/min/kg]	Vd [1, 7] [L/kg]	AUC [1, 8] [ng·h/mL]	bioavailability [1, 8] [%]	AUC(0-inf) [1, 9] [ng·h/mL]	AUC(0-t) [1, 9] [ng·h/mL]	MRT last [1, 9] [h]	Cmax [1, 9] [ng/mL]	Tmax [1, 9] [h]	Total clearance as % liver blood flow [1] [% liver blood flow]	further results
[2H]C([2H])([2H])OC([2H])([2H])C([2H])([2H])Oc1cnc(N2CCN(CCN(C)c3cc4nc(-c5ncco5)nn4c(N)n3)CC2)c(F)c1 [Compound 13, N^7-(2-{4-[3-fluoro-5-({2-[(^2H3)methyloxy](^2H4)ethyl}oxy)pyridin-2-yl]piperazin-1-yl}ethyl)-N^7-methyl-2-(1,3-oxazol-2-yl)[1,2,4]triazolo[1,5-c]pyrimidine-5,7-diamine]	709	33	57	32400	4	0.06	–	–	–	–	–	–	–	–	–	–	–	–	–	–	–
COCCOc1cnc(N2CCN(CCN(C)c3cc4nc(-c5ncco5)nn4c(N)n3)CC2)c(Cl)c1 [Compound 14, N^7-(2-{4-[3-chloro-5-(2-methoxyethoxy)pyridin-2-yl]piperazin-1-yl}ethyl)-N^7-methyl-2-(1,3-oxazol-2-yl)[1,2,4]triazolo[1,5-c]pyrimidine-5,7-diamine]	–	–	–	15000	4	–	17	526	523	0.977	16.6	1.02	1480	56	1480	1370	2.43	373	1	~28	F [1]: 56.1%; Kp at 1 h ([2]; Table 2): 0.025
COCCOc1ccc(N2CCN(CCN(C)c3cc4nc(-c5ncco5)nn4c(N)n3)CC2)c(Cl)c1 [Compound 15, N^7-(2-{4-[2-chloro-4-(2-methoxyethoxy)phenyl]piperazin-1-yl}ethyl)-N^7-methyl-2-(1,3-oxazol-2-yl)[1,2,4]triazolo[1,5-c]pyrimidine-5,7-diamine]	1160	20	57	3940	2.3	0.05	–	–	–	–	–	–	–	–	–	–	–	–	–	–	half-life ([1]; male, Sprague-Dawley, plasma, Table 6, printed in the CL column, read-out: t½ (converted)): 1.2 h
COCCOc1ccc(N2CCN(CCN(C)c3cc4nc(-c5ncco5)nn4c(N)n3)CC2)c(OC)c1 [Compound 17, N^7-(2-{4-[2-methoxy-4-(2-methoxyethoxy)phenyl]piperazin-1-yl}ethyl)-N^7-methyl-2-(1,3-oxazol-2-yl)[1,2,4]triazolo[1,5-c]pyrimidine-5,7-diamine]	406	44	43	11800	20	0.03	–	–	–	–	–	–	–	–	–	–	–	–	–	–	–
[2H]C([2H])([2H])OC([2H])([2H])C([2H])([2H])Oc1ccc(N2CCN(CCN(c3cc4nc(-c5ncco5)nn4c(N)n3)C([2H])([2H])[2H])CC2)cc1 [Compound 18, N^7-(^2H3)methyl-N^7-(2-{4-[4-({2-[(^2H3)methyloxy](^2H4)ethyl}oxy)phenyl]piperazin-1-yl}ethyl)-2-(1,3-oxazol-2-yl)[1,2,4]triazolo[1,5-c]pyrimidine-5,7-diamine]	900	33	71	> 100000	8	0.09	–	–	–	–	–	–	–	–	–	–	–	–	–	–	–
COCCOc1cnc(N2CCN(CCN(C)c3cc4nc(-c5ncco5)nn4c(N)n3)CC2)c(C(F)(F)F)c1 [Compound 19, N^7-(2-{4-[5-(2-methoxyethoxy)-3-(trifluoromethyl)pyridin-2-yl]piperazin-1-yl}ethyl)-N^7-methyl-2-(1,3-oxazol-2-yl)[1,2,4]triazolo[1,5-c]pyrimidine-5,7-diamine]	–	–	–	16000	4	–	7	1230	1220	1.48	6.85	0.635	4980	83	5050	4980	2.65	1300	1.25	~10	Cmax [1, 7]: 1020 ng/mL; Tmax [1, 7]: 0.033 h; MRTlast ([1]; IV 0.5 mg/kg, injectable water, 0.5 mg/kg): 1.4825 h; CL ([1]; PO 2.5 mg/kg row of Table 3): 9.05 mL/min/kg; F [1]: 82.7%; Kp at 1 h ([2]; Table 2): 0.01
